Test results published in patent publication US5057495A, “Atrial hypotensive peptide” (Queen's University at Kingston, priority 1988, dated 1991).
“Also recorded” adds a separate entry of the source. Bridge positions count the residues as written; N and C are the ends. Peptide text beside a SMILES is read from it.

B1: pro-ANP: precursor of ANP, tested for cross reactivity with the antiserum (protein, UniProt P01161 25-152, looked up)
pro-form: NPVYSAVSNTDLMDFKNLLDHLEEKMPVEDEVMPPQALSEQTDEAGAALSSLSEVPPWTGEVNPSQRDGGALGRGPWDPSDRSALLKSKLRALLAGPRSLRRSSCFGGRIDRIGAQSGLGCNSFRYRR
modifications: pro-form

Experiments:
[1] = tested on: assay rats anesthetized with sodium pentobarbital; experiment: I.V. bolus injection into anesthetized bioassay rats: cardiovascular and renal responses; type: in vivo, rat; conditions: 3 nmol bolus injection
Description: Experiments were performed using male Sprague-Dawley rats, ranging in weight from 270-362 g. The rats were anesthetized by an intraperitional injection of sodium pentobarbital (70 mg.kg-1; MTC Pharmaceuticals, Hamilton, Ont.). Additional small amounts of anesthetic were administered as required in the course of the experiment. Body temperature was maintained by a heating lamp and rectal temperature monitored by a rectal probe. After installing a tracheal cannula, a femoral vein was cannulated and a priming infusion of saline (0.9% NaCl) was administered over a 20 min period (1.1 ml); this was followed by a maintenance saline infusion of 1.2 ml.h-1. The femoral artery was then cannulated for blood pressure measurement (Statham pressure transducer, model P23Db). A catheter was also advanced via the right external jugular vein towards the right heart for bolus injections of vehicle, ANF or the atrial peptide of the present invention (AHP). After tying off the penis, the bladder was cannulated for urine collection. […] The EKG was recorded for determination of heart rate.
Urine was collected in preweighed vials and volume calculated by weighing. […]
Zero time was established by 40-60 mins from the beginning the priming saline infusion. […] Cardiovascular measurements were analyzed at 5 min intervals during control and at 1, 5, 10, 15 and 20 mins following administration of injectate. […]

[2] = tested on: antiserum to iso-rANP(1-20) (P2A); experiment: Double immunodiffusion / cross reactivity of antiserum raised against P2A; type: binding, rabbit

Molecule	diuretic, natriuretic, hypotensive and bradycardic response of ring peptides (FIG. 5) [1]	reaction with antiserum against P2A (precipitin lines / cross reactivity) [2]
rANP(23-39): ring portion of rANP [reference compound]	substantially biologically inactive	
CC[C@H](C)[C@@H]1NC(=O)[C@H](CCCNC(=N)N)NC(=O)[C@H](CC(=O)O)NC(=O)[C@H]([C@@H](C)CC)NC(=O)[C@H](CCCCN)NC(=O)[C@H](CCC(N)=O)NC(=O)CNC(=O)[C@H](Cc2ccccc2)NC(=O)[C@@H](N)CSSC[C@@H](C(=O)O)NC(=O)CNC(=O)[C@H](CC(C)C)NC(=O)[C@H](CCCNC(=N)N)NC(=O)[C@H](CO)NC(=O)[C@H](C(C)C)NC(=O)[C@H](C)NC(=O)CNC1=O [Iso-rANP(23-39)] (H-CFGQKIDRIGAVSRLGC-OH; disulfide 1-17)	significant diuretic, natriuretic, hypotensive and bradycardin response	
B1		No cross reactivity; also recorded: did not cross-react
